Literature values in publication PMC9854340 (RSC Advances, 2023).

Experiments:
[1] = folding square to folded form; CH3CN-d3; van't Hoff plot; previous report
[2] = tested on: HL-60 human myeloblastic leukemia cells; details: HL-60 cells, MTT; data taken from a previous report

Substance: Ascidiacyclamide [Peptide 1a]
- ΔH° [1]: -2.28 kcal/mol
- ΔS° [1]: -0.009417 kcal/mol
- ED50 [2]: 32.9 ± 0.9 µg/mL
